The numbers were not newly measured in patent US10098922B1, “Increasing telomere length in a cell” (priority 2017, dated 2018), which cites them from elsewhere.

For data set [1], the system named is doxorubicin-induced leukopenia. Particulars: rats, oral by gavage.
In a further data set the test system is rats. Particulars: AC-11 80 mg/kg plus doxorubicin vs doxorubicin only.

Consider `O=C(O)[C@]1(O)C[C@@H](O)[C@@H](O)[C@H](O)C1` [QA, quinic acid], for which the “Reversal of doxorubicin-induced leukopenia” value in data set [1] is listed as “about as effective as C-MED-100®”.

In the case of `N.O=C(O)C1(O)CC(O)C(O)C(O)C1` (stereo not drawn) [QAA], the “Reversal of doxorubicin-induced leukopenia” value in data set [1] is “about as effective as C-MED-100®”.

With `COc1cccc2c1C(=O)c1c(O)c3c(c(O)c1C2=O)C[C@@](O)(C(=O)CO)C[C@@H]3O[C@H]1C[C@H](N)[C@H](O)[C@H](C)O1` [doxorubicin], in the data set on rats, the “Mean heart weight coefficient” value was 0.369%±0.022.
